≈ marks a conversion by molar mass, not a printed value. Like-named read-outs stand apart in the source and are kept apart here.
Legend:
[1] = tested on: isolated rat liver mitochondria; experiment: Mitochondrial permeabilization (ΔΨ, large-amplitude swelling); details: for IC50: read-out: IC50 of mitochondrial swelling, swelling 30 min after ceramide treatment
Method: Effects of ceramides on ΔΨ value (17A) and mitochondrial large-amplitude swelling (17B, 17C) Mitochondria were incubated at the condition described under Section 9.1 except that 2 μM of TPP+ was present from the beginning of the experiment. Alamethicin (ALA), a pore-forming peptide (7 μg/mg protein), was added as indicated to induce permeabilization and determine the full extend of potential changes in the parameters of interest. Where indicated ceramides at 40 μM were present from the beginning of the experiment. FIGS. 17A and 17B show time-courses of ceramides effect on ΔΨ and mitochondrial swelling. […] Degree of mitochondrial swelling was determined 30 min after ceramide treatment.
Mitochondria were incubated at the condition described under Section 9.1 except that 2 μM of TPP+ was present from the beginning of the experiment. Trace 2, no addition. […] Trace 4, FCCP at 1 μM was present from the beginning of the experiment. […] Alamethicin (ALA), a pore-forming peptide (7 μg/mg protein), was added as indicated to induce permeabilization and determine the full extent of potential changes in the parameters of interest.
Mitochondria were incubated at the condition described under “Experimental procedures”. […] Trace 2, DCCD at 100 μM was added from the beginning of the experiment. Alamethicin (ALA) was added as indicated to determine full degree of permeabilization. […] The curve was generated from experiments similar to that depicted in traces 1 and 2 with indicated concentration of DCCD present from the beginning of the experiment.
Effect of hydrophobic cations on the time-course of mitochondrial large-amplitude swelling. Alamethicin (ALA), a pore-forming peptide (7 μg/mg protein), was added as indicated to induce permeabilization and determine the full extent of mitochondrial swelling. Where indicated cations at 60 μM were added to the incubation medium. Trace 1, no additions; trace 2, C2 pyridinium ceramide; trace 3, TMRM; trace 4, cetyl pyridinium; trace 5, TPP^+. Trace 3 was corrected for the absorbance of TMRM.
Time-course (A) and dose-response (B) of the effect of C6 pyridinium dihydroceramide on mitochondrial large-amplitude swelling. Mitochondria were incubated at the condition described under “Experimental procedures”. Alamethicin (ALA), a pore-forming peptide (7 μg/mg protein), was added as indicated to induce permeabilization and determine the full extent of mitochondrial swelling. Where indicated ceramides at 30 μM were added to the incubation medium. […] Trace 1, no additions; trace 2, C6 pyridinium ceramide; trace 3, C6 pyridinium dihydroceramide. […] Degree of mitochondrial swelling was determined 15 min after ceramide treatment. Trace 1, C6 pyridinium dihydroceramide; trace 2, C6 pyridinium ceramide.

[2] = tested on: isolated rat liver mitochondria; experiment: Accumulation / binding in isolated mitochondria
Method: FIG. 16. […] Bar 2 and 4 (+FCCP), ΔΨ was dissipated by addition of FCCP at 1 μM plus antimycin A at 0.5 μg/mg protein from the beginning of the experiment. Results are expressed as mean+SEM of n=3, *p=0.01 versus control.
FIG. 23. […] Trace 3 was corrected for the absorbance of TMRM.
Preparation of mitochondria from rat liver.
Mitochondrial incubation medium.
Analysis of ceramides by mass spectroscopy (MS).

[3] = tested on: isolated rat liver mitochondria; experiment: Cytochrome C release from mitochondria; assay type: biochemical; details: 40 μM; for cytochrome C released from mitochondria: 20 minutes of incubation
Method: FIGS. 20A and 20B. […] Two min after the addition of CSA and EGTA samples were collected and treated for cytochrome C analysis. Alamethicin (ALA, 7 μg/mg protein) was added as indicated to determine the full degree of permeabilization and maximum cytochrome C release. […] Total amount of cytochrome C is 1.95 μg/mg protein.
Cytochrome C release from mitochondria. Aliquots of mitochondrial suspension were taken as indicated in figure legends and centrifuged at 15,000 g for 3 min. The supernatant and mitochondrial pellet were frozen and stored at […]. Cytochrome C in supernatants and pellets was quantified using the Quantikine cytochrome C ELISA kit (R&D Systems, Minniapolis, Minn.).

MCF7 cells [4] = tested on: MCF7 cells
Method: (§1) Dose-response curves of ceramides effect on viability of Hep G2 and MCF7 cells. Hep G2 and MCF7 cells were incubated at the condition described in Section 9.1. […] Cell viability was assessed 46 hours after addition of ceramides. Data are expressed as a mean+SEM of n=3.
(§2) Cell culture. Hep G2 cells (obtained from ATCC) were cultured in Minimum essential medium (Eagle) supplemented with 10% fetal bovine serum, 2 mM L-glutamine, non-essential amino acids, 1 mM sodium pyruvate, and 1.5 g/L sodium bicarbonate in humidified air (5% CO2) at 37° C. […] MCF7 cells (obtained from ATCC) were cultured in RPMI 1640 Medium supplemented with 10% fetal bovine serum and 2 mM glutamine in humidified air (5% CO2) at 37° C. All media were supplemented with 100 U/ml penicillin and 100 μg/ml streptomycin.
(§3) Measurement of cell viability. Hep G2 or MCF7 cells were plated at a density of 10^4 cells/well in 96-well plates in the medium described under Cell culture. After 24 hours of incubation, the cells were treated with ceramides for 46 hours in 2% fetal bovine serum medium. Cell viability was determined by MTT (3-[4,5-dimethylthiazol-2-yl]-2,5-diphenyl tetrasodium bromide) based assay according manufacture recommendation (Sigma, St. Louis, Mo.).

[5] = tested on: MCF7 breast carcinoma cells; experiment: Cell proliferation and viability, Trypan blue exclusion assay; assay type: cell-based; details: for IC50: 48 h treatment, read-out: IC50, inhibitory effect on MCF7 cell growth
Method: FIGS. 5A-5F show the dose dependent effects of CCPS analogs on survival of MCF7 breast carcinoma cells in comparison to the activity of D-e-C6-ceramide, which is commonly used as a model of ceramide action. Cell proliferation and cell viability were determined by Trypan blue exclusion assay. These assays were performed using duplicate samples in two or three independent experiments.
Cell Proliferation: Cells were seeded into plates at a density of approx. 50% corresponding to 1×10^6 cells, in 10 ml of 10% FCS and after an over night incubation the cells were treated with LCL compounds at concentration 0-20 μM in ethanol (ethanol level was kept below 0.1%) and the changes in cell numbers after 48 h were determined and expressed as a percentage of the untreated controls.
Briefly, media was removed, cells were washed twice with PBS, detached using 1% Trypsin and centrifuged at 800 rpm. Cell pellets were resuspended in PBS and Trypan blue (Sigma Chemicals, St. Louis, Mo., USA) was added (1:1 dilution). Under light microscope, the percentage of unstained and stained cells was assessed.
To examine the anticancer activity of CCPS analogs of the invention, their inhibitory effect on MCF7 breast carcinoma cells were analyzed and compared to the activity of D-e-C6-ceramide, which is commonly used as a model of action for ceramides. Cell proliferation and cell viability were determined by Trypan blue exclusion assay.

[6] = Solubility of ceramides and ceramidoids in water; details: 37° C.
[7] = aqueous conditions at pH 4.5, 7.5 and 8.5 over 48 hrs
MCF7 cells [8] = details: 5 μM
Method: Data are expressed as changes in the total ceramide level (pmol) or individual ceramide components (pmol) normalized to the phospholipid level, Pi (nmol) present in the Bligh & Dyer lipid extract and shown as changes to the control cells: Ceramide/Pi[pmol/nmol] (% Control).
Endogenous ceramide: ESI/MS/MS analysis of endogenous sphingoid bases, sphingoid base 1-phosphates and ceramide species was performed on a Thermo Finnigan TSQ 7000 triple quadrupole mass spectrometer, operating in a Multiple Reaction Monitoring (MRM) positive ionization mode using modified version (Bielawski, J. et al., SERMACS 2003, poster #68) of the protocol previously published (Sullard, M. C., Merrill, A. H., Sciences stke 2001/67/p 11).
Briefly, for the indicated points, media was removed, cells were washed twice with PBS, scraped into cold PBS (2×1.0 ml), transferred to glass vials and centrifuged for 5 min at 800 rpm. Cell pellets corresponding to ˜1×10^6 cells, were fortified with the internal standards IS (C17 base D-erythro-sphingosine: 17Sph, C17 sphingosine-1-phosphate: 17Sph-1P, N-palmitoyl-D-erythro-C13 sphingosine: 13CC16-Cer and N-heptadecanoyl-D-erythro-C17shingosine: 17CC17-Cer) and extracted (2×2 ml) into a one-phase solvent system with ethyl acetate/iso-propanol/water (60/30/10 v/v). One ml of this extract was used for Pi determination after lipid re-extraction by the Bligh and Dyer method. Remaining lipid extract was evaporated, reconstituted in 100 μl of methanol, and samples were injected on the Surveyor/TSQ 7000 LC/MS system and gradient eluted from the BDS Hypersil C8, 150×3.2 mm, 3 μm particle size column, with 1.0 mM methanolic ammonium formate/2 mM aqueous ammonium formate mobile phase system. […]
Quantitative analysis was based on the calibration curves generated by spiking an artificial matrix with the known amounts of the target analyte synthetic standards and an equal amount of the internal standards (IS). […]
Final data were adjusted and results were expressed as level of particular sphingolipids/Pi (pmol/nmol).

UM-SCC-22A cells [9] = experiment: MTT cell survival assay and isobologram studies; assay type: cell-based, human; details: UM-SCC-22A, read-out: IC50, cell growth
Method: Human head and neck cancer cell lines UM-SCC-1 (retromolar trigone/floor of the mouth), UM-SCC-12 (primary tumor of larynx), and UM-SCC-22A cells were obtained from clinical samples. Cells were grown in DMEM containing 10% FCS and 1% penicillin/streptomycin at 37° C. in 5% CO2.
MTT cell survival assay and isobologram studies. The concentrations of agents that inhibited cell growth by 50% (IC50) were determined from cell survival plots obtained by MTT. Triplicate wells were used for each treatment. The final concentration of DMSO (a solvent for conventional ceramides, GMZ and DOX) in the growth medium was less than 0.1% (v/v) which has no effect on cell growth and survival. Pyridinium ceramides were dissolved in sterile water or growth medium. In short, after cells (5-10×10^3/well) were seeded in 96-well-plates for 24 hr, they were treated with increasing concentrations of ceramide analogs for an additional 48 or 96 hr. For combination treatments, ceramides and chemotherapeutic agents (gemcitabine (GMZ) or doxorubicin (DOX)) were added to the growth medium simultaneously during treatment. Isobologram plots were then constructed using IC50 values of the two agents alone or in combination obtained from MTT assays. A straight line joining points on x- and y-axes represent the IC50 concentrations of two agents, and the points representing the IC50 concentrations of the combination of the two agents are represented as scatter plots on the same graphs. In general, the points that fall within the left of the straight line indicate synergism. The experiments were performed as triplicates in at least 3 independent experiments.
Human head and neck cancer cell lines UM-SCC-1 (retromolar trigone/floor of the mouth), UM-SCC-14A (SCC of anterior floor of the mouth), and UM-SCC-22A (SCC of hypopharynx) cells were obtained. Cells were grown in DMEM containing 10% FCS and 1% penicillin/streptomycin at 37° C. in 5% CO2.
MTT cell survival assay and isobologram studies. The concentrations of agents that inhibited cell growth by 50% (IC50) were determined from cell survival plots obtained by MTT assays. […] In general, the points that fall within the left of the straight line indicate synergism. The experiments were performed as triplicates in at least 3 independent experiments. Error bars represent standard deviations.

MCF7 cells [10] = details: 5 μM, 5 h
Method: FIGS. 4A-4C show the cellular levels of CCPS analogs. MCF 7 cells were treated with 5 μM concentration of CCPS analogs over the time and cellular level of the nonmetabolized CCPSs was measured by MS methodology as shown under Experimental. Results are expressed as % of concentration applied.
A parallel set of cells was used to determine cell proliferation and to prepare lipid extracts for MS analysis.
Briefly, for the indicated points, media was removed, cells were washed twice with PBS, scraped into cold PBS (2×1.0 ml), transferred to glass vials and centrifuged for 5 min at 800 rpm. Cell pellets corresponding to ˜1×10^6 cells, were fortified with the internal standards IS (C17 base D-erythro-sphingosine: 17Sph, C17 sphingosine-1-phosphate: 17Sph-1P, N-palmitoyl-D-erythro-C13 sphingosine: 13CC16-Cer and N-heptadecanoyl-D-erythro-C17shingosine: 17CC17-Cer) and extracted (2×2 ml) into a one-phase solvent system with ethyl acetate/iso-propanol/water (60/30/10 v/v). One ml of this extract was used for Pi determination after lipid re-extraction by the Bligh and Dyer method. Remaining lipid extract was evaporated, reconstituted in 100 μl of methanol, and samples were injected on the Surveyor/TSQ 7000 LC/MS system and gradient eluted from the BDS Hypersil C8, 150×3.2 mm, 3 μm particle size column, with 1.0 mM methanolic ammonium formate/2 mM aqueous ammonium formate mobile phase system. Peaks corresponding to the target analytes and IS were collected and processed using the Xcalibur software system.
Cellular level of CCPS analogs was established by MS methodology.

UM-SCC-22A cells [11] = experiment: Cell cycle profiles by flow cytometry; assay type: cell-based, human; details: 1 μM, 48 hr
Method: FIGS. 13A to 13B. Roles of CCPS on cell cycle profiles, and telomerase activity of UM-SCC-22A cells. (FIG. 13A) The effects of D-e-C6—, D-e-C12- and L-th-C12-pyridinium ceramides (at 1 μM for 48 hr) on cell cycle profiles of UM-SCC-22A cells were determined and compared to that of untreated cells using flow cytometry as described in Materials and Methods. (FIG. 13B) The effects of 0, 100, 250 and 500 nM L-t-C6-Pyr-Cer (LCL-124) (lanes 1-4, respectively) at 96 hr treatment in UM-SCC-22A cells on telomerase activity was assessed using TRAP assay. Lanes 5 and 6 contain positive (+) and negative (−) controls. To examine whether C6-Pyr-Cer inhibits telomerase activity directly, cell extracts (as shown in lane 1) were incubated in the presence of various concentrations of L-th-C6-Pyr-ceramide (LCL-124; 10, 20 and 100 μM) and telomerase activity was determined using TRAP assay (lanes 7-9, respectively). The presence of non-telomeric 36 bp internal standard (IS) in the TRAP assay serves as a control for polymerase chain reaction, and used for quantitation/normalization of the activity of telomerase. The results shown are representative of at least two independent experiments.
Analysis of cell cycle profiles. The effects of pyridinium ceramides on the cell cycle profiles of A549 cells at 24 hr were analyzed in the presence of DNase-free RNase and propidium iodine (PI) by flow cytometry as described in Ogretmen et al., J. Biol. Chem. 2001; 276: 24901-24910, which is incorporated herein by reference in its entirety. Untreated cells were used as controls.
Analysis of cell cycle profiles. […] Untreated cells were used as controls.

Method for Hep G2 cells: as §1, §2, §3

CCCCCCCCCCCCC/C=C/[C@@H](O)[C@H](CO)NC(=O)CCCCC [C6-Cer, D-erythro-C6-ceramide, reference compound]
IC50 [1]: > 60000 nM
suppression of accumulation by dissipation of ΔΨ (antimycin plus FCCP) ([2]; 10 μM): insensitive to dissipation of ΔΨ
association with mitochondria ([2]; 10 μM, energized mitochondria): 79.3%
binding to mitochondria ([2]; 30 μM, at 4 min): 5±0.8 nmol/mg protein
IC50 (Hep G2 cells): ~31000 nM
cytochrome C released from mitochondria [3]: no effect on cytochrome C release
IC50 (MCF7 cells [4]): ~16000 nM
inhibition of MCF7 cell growth ([5]; 10 μM, 48 h): ~35%
IC50 [5]: 15000 nM
Solubility at 37° C. [6]: 1.4 µg/mL (≈ 3.52 µM)
Solubility at 37° C. ([mM]) [6]: (0.0036) mM

CCCCCCCCCCCCC/C=C/[C@@H](O)[C@H](CO)NC(=O)CCCCCCCCCCCCCCC[n+]1ccccc1.[Br-] [LCL30, D-erythro-2-N-[16′-(1″-Pyridinium)-hexadecanoyl]-sphingosine Bromide]
Stability (decomposition) by MS [7]: no evidence of their decomposition
effect on endogenous ceramide (MCF7 cells [8]): caused generation of an “early Cer”
IC50 (UM-SCC-22A cells [9]; 48 hr): ~1000 nM
IC50 (UM-SCC-22A cells [9]; 96 hr, DMEM): ~300 nM
inhibitory effect on MCF7 cell growth (in words) ([5]; 48 h): similar, concentration dependent (1.0-10.0 μM) inhibitory effect on cell growth
IC50 ([5]; listed as LCL-30): 1600 nM
IC50 [5]: 1800 nM
Cellular level, % of concentration applied (MCF7 cells [10]): ~17%
cell cycle profile (UM-SCC-22A cells [11]): significant increase in the population of cells in G0/G1

CCCCCCCCCCCCC/C=C/[C@@H](O)[C@H](CO)NC(=O)CCCCCCCCCCC[n+]1ccccc1.[Br-] [LCL88, D-erythro-2-N-[12′-(1″-Pyridinium)-dodecanoyl]-sphingosine Bromide]
Stability (decomposition) by MS [7]: no evidence of their decomposition
effect on endogenous ceramide (MCF7 cells [8]): caused generation of an “early Cer”
IC50 (UM-SCC-22A cells [9]; 48 hr): ~1000 nM
IC50 (UM-SCC-22A cells [9]; 96 hr, DMEM): ~300 nM
IC50 [5]: 600 nM
Cellular level, % of concentration applied (MCF7 cells [10]): 23%
cell cycle profile (UM-SCC-22A cells [11]): significant increase in the population of cells in G0/G1

D-erythro-2-N-[6′-(1″-Pyridinium)-hexanoyl]-sphingosine Bromide [LCL29]
effect on ΔΨ and mitochondrial swelling (in words) ([1]; 40 μM): complete dissipation of ΔΨ
IC50 [1]: ~27500 nM
effect on endogenous ceramide (MCF7 cells [8]): caused generation of an “early Cer”
IC50 (Hep G2 cells): ~8000 nM
IC50 (UM-SCC-22A cells [9]; 48 hr): ~1000 nM
IC50 (UM-SCC-22A cells [9]; 96 hr, DMEM, listed as D-e-C6-Pyr-Cer): ~300 nM
fold decrease in cytochrome C release with FCCP plus antimycin A ([3]; 20 minutes): ~3 fold
cytochrome C released from mitochondria [3]: about 40%
IC50 (MCF7 cells [4]): ~2000 nM
inhibitory effect on MCF7 cell growth (in words) ([5]; 48 h): caused inhibitory effect on MCF7 cell growth
IC50 [5]: 1000 nM
cell cycle profile (UM-SCC-22A cells [11]): significant increase in the population of cells in G0/G1
